# Read-outs that look alike come from different tables or passages of the source.
# What was measured:
# [1] = test system: Plasmodium Falciparum K1 strain; test: in vitro growth-inhibiting screening assay, chloroquine-resistant falciparum malaria; type: cell-based; conditions: for EC50: chloroquine-resistant strain, 72 h culture, 3H-hypoxanthine, read-out: 50% growth-inhibiting concentration (nM) P. falciparum K1
# Description: Plasmodium Falciparum K1 strain was used as a chloroquine-resistant protozoa of falciparum malaria. RMI-1640 sterilized by filtration was supplemented with human serum of a final concentration of 5% to be used as a culture medium. The malaria protozoa were cultured under O2 concentration of 3%, CO2 concentration of 4%, N2 concentration of 93% at 37° C.
# A test sample was prepared by dissolving the test compounds according to the present invention and a positive control drug (chloroquine) in DMSO to a predetermined concentration. The erythrocytes infected with the cultured malaria protozoa were collected by centrifugation and so diluted with non-infected erythrocytes to have an initial infection ratio of 0.15%. The hematocrit value was then 2.5%. Culture mixture of the above malaria-infection culture medium (200 μL) was placed into each well of a 96-well culture plate, and the test sample comprising the predetermined amount of the test compound, and DMSO without the test compound were added to the wells in duplicate.
# After culture for 48 hours at 37° C., hypoxanthine labeled with radioactive tritium (^3H) of 0.5 μCi was added to each well. After the culture in the same conditions for further 24 hours, the sample was taken on a glass fiber filter and washed with distilled water. Intensity of radiation was measured by means of plate liquid scintillation counter (Wallac Co.), and an infection ratio of the protozoa of malaria was calculated with respect to a group treated with the test sample and the control. A growth-inhibiting ratio was then calculated from the resulting infection ratio in accordance with the following equation to determine 50% growth-inhibiting concentration (EC50).
# Growth-inhibiting ratio (%)=[1−(b−a)/(c−a)]×100 • a: Initial infection ratio; • b: Infection ratio of the test sample group; and • c: Infection ratio of the control group. In vitro Growth-Inhibiting Assay of Rat L6 Cells
# Anti-malaria effect of the samples was assessed by their EC50 values for the chloroquine-resistant protozoa of falciparum malaria and the rat L6 cell. A chemotherapy coefficient, which is used as an index for the selective toxicity for the chloroquine-resistant protozoa of falciparum malaria was calculated by the following equation, and the pharmaceutical effect was determined.
# Chemotherapy coefficient=(EC50 value of the test sample for rat L6 cell)/(EC50 value of the test sample for the chloroquine-resistant protozoa of falciparum malaria)
# [2] = test system: Plasmodium berghei NK65 strain; test: in vivo 4-day suppressive test, intraperitoneal administration, mouse infected with malaria; conditions: 4 days
# Description: This test was carried out in accordance with 4-day suppressive test that is a general in vivo test for the activity of an anti-malaria compound. Rodent malaria protozoa (Plasmodium berghei NK65 strain) were used in this test. Infected blood was prepared by infection with intraperitoneal administration into ICR male mouse (5 weeks age; SPF) and passage culture (subculture) thereafter. Blood was drawn from the vein of a tail of the moue infected with malaria, and its infection ratio was determined. After it was confirmed that the infection ratio had been increased up to an appropriated level (10˜20%), the blood infected with malaria was drawn from the heart of the mouse. The infection ratio and number (cells/mL) of erythrocytes were determined. An uninfected mouse (ICR male, 5 weeks age) was then infected with an injection of the infected erythrocytes so diluted with PBS as to comprise the protozoa of […] per dose (0.2 mL) into the vein of its tail.
# A test sample was prepared by dissolving the test compounds according to the present invention into physiologic saline (Otsuka Pharmaceuticals Industries) to a predetermined concentration. In the case where the compound was insoluble in water, it was dissolved into DMSO or Tween 20 to prepare the test sample. A control group (no drug-administration group) was treated only with physiologic saline. […]
# One group consisted of five mice. The intraperitoneal administration of the test sample started after two hours from the infection with malaria and continued for successive 4 days with a 24-hour interval. After 24 hours from the last administration, blood was drawn from the tail of the infected mouse to prepare a thin-layer smear, and the number of the erythrocytes infected with the malaria protozoa under a microscope with respect to the control group and the test sample groups. Parasitemia, i.e., the infection ratio with the malaria protozoa, was obtained by calculating an average value of the medium three mice except the two mice showing a maximum or minimum inhibition level. A cure rate (suppression) was then calculated from the resulting parasitemia in accordance with the following equation.
# Cure rate: suppression (%)=(b−a)/b×100 • a: Infection ratio of the test sample group; and • b: Infection ratio of the control group.
# [3] = test system: Trypanosoma cruzi (Tulahuen C2C4 strain); test: in vitro growth-inhibiting screening assay, protozoa of American trypanosomiasis; type: cell-based; conditions: for EC50: in infected rat L6 cells, 96 h, CPRG/Nonidet, read-out: 50% growth-inhibiting concentration (nM) Trypanosoma cruzi
# Description: The test was done using a trypomastigote and an amastigote of the protozoa of Trypanosoma cruzi (Tulahuen C2C4 strain) present in the infected rat L6 cells. The L6 cells were cultured in RPMI-1640 medium supplemented with 1% of […] (200 mM) and 10% of fetal calf serum under CO2 concentration of 5%, at 37° C.
# A test sample was prepared by dissolving the test compounds according to the present invention and a positive control drug (benznidazole) in DMSO to a predetermined concentration. Culture medium containing the protozoa of 5×10^3 was added into each well of 96-well culture plate and cultured for 48 hours. After the medium was exchanged, the test sample comprising the predetermined amount of the test compound, and DMSO without the test compound were added into each well in duplicate.
# After incubation of the culture plate for 96 hours in an incubator, a growth-inhibiting activity was assayed as follows. CPRG/Nonidet (50 μL) was added to each well followed by a further 2˜6-hour culture. The culture plate was then attached to an absorption micro titer plate reader, the absorbance at 540 nm was detected to calculate an infection ratio of the protozoa with respect to a group treated with the test sample and a control group. A growth-inhibiting ratio was then calculated from the resulting infection ratio in accordance with the following equation to determine 50% growth-inhibiting concentration (EC50).
# Growth-inhibiting ratio (%)=[1−(b−a)/(c−a)]×100 • a: Initial infection ratio; • b: Infection ratio of the test sample group; and • c: Infection ratio of the control group.
# A selective toxicity coefficient, which is used as an index for the selective toxicity for the protozoa of American trypanosomiasis, was calculated by the following equation, and the pharmaceutical effect was determined.
# A selective toxicity coefficient=(EC50 value of the test sample for rat L6 cell)/(EC50 value of the test sample for the protozoa of American trypanosomiasis).
# [4] = Table 5, 2.5 mg/kg/day intraperitoneal
# [5] = Table 5, 5.0 mg/kg/day intraperitoneal
# [6] = Table 5, 10 mg/kg/day intraperitoneal
# [7] = Table 5, 20 mg/kg/day intraperitoneal
Compound,EC50 [1] [nM],Parasitaemia suppression (%) ([2]; 5 mg/kg/day intraperitoneal),"Parasitaemia suppression (%) [2, 4] [%]","Parasitaemia suppression (%) [2, 5] [%]","Parasitaemia suppression (%) [2, 6] [%]","Parasitaemia suppression (%) [2, 7] [%]",EC50 [3] [nM],Selective toxicity ([1]; EC50 rat L6 cell / EC50 P. falciparum K1),"EC50 ([1]; Plasmodium falciparum, K1) [nM]",Selective toxicity ([3]; EC50 rat L6 cell / EC50 protozoa of American trypanosomiasis),"EC50 ([3]; Trypanosoma cruzi, TULAHUEN) [nM]"
CCN(CC)c1ccc2nc3ccc(=[N+](CC)CC)cc-3oc2c1.[Cl-] [A-1 (60% purity)],4.6,46.3,30.5,46.3,82.4,95.8,149,–,–,–,–
CCN(CC)c1ccc2nc3ccc(=[N+](CC)CC)cc-3oc2c1.[Cl-] [A-1 (>95% purity)],2.1,79.2,–,–,–,–,15,–,–,–,–
CN(C)c1ccc2nc3ccc(=[N+](C)C)cc-3oc2c1.CN(C)c1ccc2nc3ccc(=[N+](C)C)cc-3oc2c1.[Cl-].[Cl-].[Cl][Zn][Cl] [Compound A-3],15.6,17.1,–,–,–,–,457,–,–,–,–
CC[N+](CC)=c1ccc2nc3ccc(N(C)C)cc3oc-2c1 [Compound A-4],–,85.3,58.7,85.3,99.9,>99.99,–,1200,2.1,22,211
CCCC[N+](CCCC)=c1ccc2nc3ccc(N(CC)CC)cc3oc-2c1.[Cl-] [Compound A-6],2.4,83.1,–,–,–,–,24,–,–,–,–
CCCC[N+](CCCC)=c1ccc2nc3ccc(N(C)C)cc3oc-2c1.[O-][Cl+3]([O-])([O-])[O-] [Compound A-7],1.5,90.3,–,–,–,–,22,–,–,–,–
